Patent publication US11254668B2, “Pyrazolo[1,5-A]pyrazin-4-yl and related derivatives” (Pfizer Inc., priority 2017, dated 2022)

What was measured:
Type in all cases: biochemical
TYK2 = TYK2 (Homo sapiens (Human), UniProt P29597); assay: JAK Caliper Enzyme Assay at 1 mM ATP, TYK2
Procedure: (§1) Compounds of the invention were evaluated by in vitro methods to determine their respective ability to inhibit the JAK kinases (TYK2, JAK1, JAK2, JAK3).
(§2) The human JAK inhibitory activity was determined by using a microfluidic assay to monitor phosphorylation of a synthetic peptide by the recombinant human kinase domain of each of the four members of the JAK family, JAK1, JAK2, JAK3 and TYK2. […] Each assay condition was optimized for enzyme concentration and room temperature incubation time to obtain a conversion rate of 20% to 30% phosphorylated peptide product. Reactions were terminated by the addition of stop buffer containing EDTA. Utilizing the LabChip 3000 mobility shift technology (Caliper Life Science), each assay reaction was sampled to determine the level of phosphorylation. This technology is separation-based, allowing direct detection of fluorescently labeled substrates and products. Separations are controlled by a combination of vacuum pressure and electric field strength optimized for each peptide substrate.
(§3) JAK Caliper Enzyme Assay at 1mM ATP
(§4) Compounds were added to a 384-well plate.
(§5) The data was collected using the HTS Well Analyzer software from Caliper Life Sciences. The data output for data analysis is the percent product converted calculated on peak height (Equation 1). % product converted=100*((product)/(product+substrate)) Equation 1: […]
(§6) The percent effect at each compound concentration was calculated based on the positive and negative control well contained within each assay plate (Equation 2). […] The negative control wells contained DMSO alone (at the same concentration as the compound wells) that was used to set the baseline activity in the assay (i.e., uninhibited JAK1, JAK2, JAK3 or TYK2). % effect=100*([…](positive control-negative control)) Equation 2: […]
(§7) The percent effect was plotted against the compound concentration compound.

JAK1 = JAK1 (Homo sapiens (Human), UniProt P23458); assay: JAK Caliper Enzyme Assay at 1 mM ATP, JAK1
Procedure: as §1, §2, §3, §4, §5, §6, §7

JAK2 = JAK2 (Homo sapiens (Human), UniProt O60674); assay: JAK Caliper Enzyme Assay at 1 mM ATP, JAK2
Procedure: as §1, §2, §3, §4, §5, §6, §7

JAK3 = JAK3 (Homo sapiens (Human), UniProt P52333); assay: JAK Caliper Enzyme Assay at 1 mM ATP, JAK3
Procedure: as §1, §2, §3, §4, §5, §6, §7

Chain of TYK2 (P29597 897-1176): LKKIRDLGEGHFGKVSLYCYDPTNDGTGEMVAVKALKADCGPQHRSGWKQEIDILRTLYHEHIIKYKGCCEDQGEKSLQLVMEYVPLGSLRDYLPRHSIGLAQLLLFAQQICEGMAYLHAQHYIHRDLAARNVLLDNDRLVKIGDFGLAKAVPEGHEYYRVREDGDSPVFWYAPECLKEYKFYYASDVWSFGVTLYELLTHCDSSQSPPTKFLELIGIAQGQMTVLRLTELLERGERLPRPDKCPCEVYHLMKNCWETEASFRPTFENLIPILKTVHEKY
Chain of JAK1 (P23458 875-1153): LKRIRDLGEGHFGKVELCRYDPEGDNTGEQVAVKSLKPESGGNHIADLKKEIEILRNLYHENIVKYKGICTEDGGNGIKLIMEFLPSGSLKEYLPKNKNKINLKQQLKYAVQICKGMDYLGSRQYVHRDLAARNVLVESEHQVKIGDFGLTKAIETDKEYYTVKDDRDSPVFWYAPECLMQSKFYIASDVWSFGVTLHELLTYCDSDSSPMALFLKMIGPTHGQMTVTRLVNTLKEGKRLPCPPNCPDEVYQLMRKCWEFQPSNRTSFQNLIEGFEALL
Chain of JAK3 (P52333 822-1111): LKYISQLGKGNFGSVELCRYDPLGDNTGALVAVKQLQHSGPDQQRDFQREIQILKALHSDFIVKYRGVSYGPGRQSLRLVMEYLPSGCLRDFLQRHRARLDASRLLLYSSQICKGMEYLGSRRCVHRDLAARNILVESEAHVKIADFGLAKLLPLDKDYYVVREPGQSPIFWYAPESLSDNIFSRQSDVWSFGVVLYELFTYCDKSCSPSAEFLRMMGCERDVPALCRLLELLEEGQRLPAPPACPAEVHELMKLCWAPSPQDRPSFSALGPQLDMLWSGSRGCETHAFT
Chain of JAK2 (O60674 849-1124): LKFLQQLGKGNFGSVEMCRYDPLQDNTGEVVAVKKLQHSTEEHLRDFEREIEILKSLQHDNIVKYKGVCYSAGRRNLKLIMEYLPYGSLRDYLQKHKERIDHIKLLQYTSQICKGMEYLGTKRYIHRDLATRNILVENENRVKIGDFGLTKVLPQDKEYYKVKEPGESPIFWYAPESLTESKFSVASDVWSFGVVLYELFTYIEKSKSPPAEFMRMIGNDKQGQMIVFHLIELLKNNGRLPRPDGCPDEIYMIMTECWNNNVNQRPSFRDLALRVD

| Molecule | IC50 (TYK2) | IC50 (JAK1) | IC50 (JAK2) | IC50 (JAK3) |
| --- | --- | --- | --- | --- |
| 2-[3-{4-[7-(1-methyl-1H-pyrazol-4-yl)-1,6-naphthyridin-5-yl]-1H-pyrazol-1-yl}-1-(2,2,2-trifluoroethyl)azetidin-3- [Example 5] | 1110 nM | 2820 nM | 2950 nM | > 10000 nM |
| N#CCC1(n2cc(-c3nc(-c4cn[nH]c4)cc4ncccc34)cn2)CN(CC(F)(F)F)C1 [Example 1, [3-{4-[7-(1H-pyrazol-4-yl)-1,6-naphthyridin-5-yl]-1H-pyrazol-1-yl}-1-(2,2,2-trifluoroethyl)azetidin-3-yl]acetonitrile] | 15 nM | 35 nM | 39 nM | 7140 nM |
| N#CC[C@H]1C[C@](CC#N)(n2cc(-c3nc(-c4cn[nH]c4)cc4ncccc34)cn2)C1 [Example 2, 2,2′-(trans-1-{4-[7-(1H-pyrazol-4-yl)-1,6-naphthyridin-5-yl]-1H-pyrazol-1-yl}cyclobutane-1,3-diyl)diacetonitrile] | 50 nM | 86 nM | 127 nM | > 10000 nM |
| N#CCC1CC(CC#N)(n2cc(-c3nc(-c4cn[nH]c4)cc4ncccc34)cn2)C1 (stereo not drawn) [Example 3, 2,2′-(cis-1-{4-[7-(1H-pyrazol-4-yl)-1,6-naphthyridin-5-yl]-1H-pyrazol-1-yl}cyclobutane-1,3-diyl)diacetonitrile] | 14 nM | 37 nM | 26 nM | 5980 nM |
| Cn1cc(-c2cc3ncccc3c(-c3cnn(C4(CC#N)CN(CC(F)(F)F)C4)c3)n2)cn1 [Example 4, [3-{4-[7-(1-methyl-1H-pyrazol-4-yl)-1,6-naphthyridin-5-yl]-1H-pyrazol-1-yl}-1-(2,2,2-trifluoroethyl)azetidin-3-yl]acetonitrile] | 17 nM | 97 nM | 26 nM | 5170 nM |
| CO[C@H]1C[C@@](CC#N)(n2cc(-c3nc(-c4cnn(CCO)c4)cc4ncccc34)cn2)C1 [Example 8, [cis-1-(4-{7-[1-(2-hydroxyethyl)-1H-pyrazol-4-yl]-1,6-naphthyridin-5-yl}-1H-pyrazol-1-yl)-3-methoxycyclobutyl]acetonitrile] | 130 nM | 661 nM | 126 nM | > 10000 nM |
| CO[C@H]1C[C@](CC#N)(n2cc(-c3nc(-c4cnn(CCO)c4)cc4ncccc34)cn2)C1 [Example 9, [trans-1-(4-{7-[1-(2-hydroxyethyl)-1H-pyrazol-4-yl]-1,6-naphthyridin-5-yl}-1H-pyrazol-1-yl)-3-methoxycyclobutyl]acetonitrile] | 77 nM | 520 nM | 107 nM | > 10000 nM |
| N#CCC1(n2cc(-c3nc(-c4cnn(C5CCOCC5)c4)cc4ncccc34)cn2)CN(CC(F)(F)F)C1 [Example 11, [3-(4-{7-[1-(tetrahydro-2H-pyran-4-yl)-1H-pyrazol-4-yl]-1,6-naphthyridin-5-yl}-1H-pyrazol-1-yl)-1-(2,2,2-trifluoroethyl)azetidin-3-yl]acetonitrile] | 21 nM | 70 nM | 14 nM | 2620 nM |
| CO[C@H]1C[C@@](CC#N)(n2cc(-c3nc(-c4cc(CO)n[nH]4)cc4ncccc34)cn2)C1 [Example 12, [cis-1-(4-{7-[3-(hydroxymethyl)-1H-pyrazol-5-yl]-1,6-naphthyridin-5-yl}-1H-pyrazol-1-yl)-3-methoxycyclobutyl]acetonitrile] | 63 nM | 407 nM | 101 nM | > 10000 nM |
| CO[C@H]1C[C@](CC#N)(n2cc(-c3nc(-c4cc(CO)n[nH]4)cc4ncccc34)cn2)C1 [Example 13, [trans-1-(4-{7-[3-(hydroxymethyl)-1H-pyrazol-5-yl]-1,6-naphthyridin-5-yl}-1H-pyrazol-1-yl)-3-methoxycyclobutyl]acetonitrile] | 42 nM | 266 nM | 82 nM | > 10000 nM |
| N#CCC1(n2ccc(-c3nc(Cl)cc4ncccc34)n2)CN(CC(F)(F)F)C1 [Example 14, {3-[3-(7-chloro-1,6-naphthyridin-5-yl)-1H-pyrazol-1-yl]-1-(2,2,2-trifluoroethyl)azetidin-3-yl}acetonitrile] | 1470 nM | 8960 nM | > 10000 nM | > 10000 nM |
| N#CCC1(n2ccc(-c3nccc4ncccc34)n2)CN(CC(F)(F)F)C1 [Example 15, {3-[3-(1,6-naphthyridin-5-yl)-1H-pyrazol-1-yl]-1-(2,2,2-trifluoroethyl)azetidin-3-yl}acetonitrile] | 7680 nM | > 10000 nM | > 10000 nM | > 10000 nM |
| N#CCC1(n2ccc(-c3nc(-c4cc[nH]n4)cc4ncccc34)n2)CN(CC(F)(F)F)C1 [Example 16, [3-{3-[7-(1H-pyrazol-3-yl)-1,6-naphthyridin-5-yl]-1H-pyrazol-1-yl}-1-(2,2,2-trifluoroethyl)azetidin-3-yl]acetonitrile] | 23 nM | 475 nM | 431 nM | > 10000 nM |
| CS(=O)(=O)N1CC(CC#N)(n2ccc(-c3nc(-c4ccn[nH]4)cc4ncccc34)n2)C1 [Example 17, [1-(methylsulfonyl)-3-{3-[7-(1H-pyrazol-5-yl)-1,6-naphthyridin-5-yl]-1H-pyrazol-1-yl}azetidin-3-yl]acetonitrile] | 44 nM | 1020 nM | 464 nM | > 10000 nM |
| N#CCC1(n2ccc(-c3nc(-c4ccn[nH]4)cc4ncccc34)n2)CN(S(=O)(=O)C2COC2)C1 [Example 19, [1-(oxetan-3-ylsulfonyl)-3-{3-[7-(1H-pyrazol-5-yl)-1,6-naphthyridin-5-yl]-1H-pyrazol-1-yl}azetidin-3-yl]acetonitrile] | 26 nM | 175 nM | 188 nM | 9910 nM |
| N#CC[C@]1(n2ccc(-c3nc(-c4ccn[nH]4)cc4ncccc34)n2)C[C@H](C#N)C1 [Example 20, trans-3-(cyanomethyl)-3-{3-[7-(1H-pyrazol-5-yl)-1,6-naphthyridin-5-yl]-1H-pyrazol-1-yl}cyclobutanecarbonitrile] | 25 nM | 381 nM | 240 nM | > 10000 nM |
| N#CCC1(n2ccc(-c3nc(-c4ccn[nH]4)cc4ncccc34)n2)CC(C#N)C1 (stereo not drawn) [Example 21, cis-3-(cyanomethyl)-3-{3-[7-(1H-pyrazol-5-yl)-1,6-naphthyridin-5-yl]-1H-pyrazol-1-yl}cyclobutanecarbonitrile] | 9 nM | 71 nM | 50 nM | 6750 nM |
| N#CC[C@H]1C[C@](CC#N)(n2ccc(-c3nc(-c4ccn[nH]4)cc4ncccc34)n2)C1 [Example 22, 2,2′-(trans-1-{3-[7-(1H-pyrazol-5-yl)-1,6-naphthyridin-5-yl]-1H-pyrazol-1-yl}cyclobutane-1,3-diyl)diacetonitrile] | 61 nM | 834 nM | 891 nM | > 10000 nM |
| N#CCC1CC(CC#N)(n2ccc(-c3nc(-c4ccn[nH]4)cc4ncccc34)n2)C1 (stereo not drawn) [Example 23, 2,2′-(cis-1-{3-[7-(1H-pyrazol-5-yl)-1,6-naphthyridin-5-yl]-1H-pyrazol-1-yl}cyclobutane-1,3-diyl)diacetonitrile] | 15 nM | 324 nM | 216 nM | > 10000 nM |
| N#CC[C@]1(n2ccc(-c3nc(-c4cc[nH]n4)cc4ncccc34)n2)C[C@@H](C(N)=O)C1 [Example 24, cis-3-(cyanomethyl)-3-{3-[7-(1H-pyrazol-3-yl)-1,6-naphthyridin-5-yl]-1H-pyrazol-1-yl}cyclobutanecarboxamide] | 167 nM | 3670 nM | 1690 nM | > 10000 nM |
| N#CCC1(n2ccc(-c3nc(-c4ccn[nH]4)cc4ncccc34)n2)CC(C(N)=O)C1 (stereo not drawn) [Example 25, trans-3-(cyanomethyl)-3-{3-[7-(1H-pyrazol-5-yl)-1,6-naphthyridin-5-yl]-1H-pyrazol-1-yl}cyclobutanecarboxamide] | 1640 nM | > 10000 nM | 8680 nM | > 10000 nM |
| CNC(=O)C1CC(CC#N)(n2ccc(-c3nc(-c4cc[nH]n4)cc4ncccc34)n2)C1 (stereo not drawn) [Example 26, cis-3-(cyanomethyl)-N-methyl-3-{3-[7-(1H-pyrazol-3-yl)-1,6-naphthyridin-5-yl]-1H-pyrazol-1-yl}cyclobutanecarboxamide] | 1470 nM | 6070 nM | 3900 nM | > 10000 nM |
| Cn1ncc(-c2cc(-c3cnn([C@]4(CC#N)C[C@@H](C#N)C4)n3)c3cccnc3c2)c1C(N)=O [Example 335, 4-(5-{2-[trans-3-cyano-1-(cyanomethyl)cyclobutyl]-2H-1,2,3-triazol-4-yl}quinolin-7-yl)-1-methyl-1H-pyrazole-5-carboxamide] | 5270 nM |  | > 10000 nM |  |
